Source: ChEMBL document CHEMBL3734664, “Noncovalent Mutant Selective Epidermal Growth Factor Receptor Inhibitors: A Lead Optimization Case Study” (J Med Chem, 2015)

Columns and labels:
Mus musculus [1] = assay: In vivo inhibition of EGFR in human NCI-H1975 cells xenografted in po dosed SCID mouse assessed as suppression of AKT phosphorylation administered as qd everyday for 3 days measured 2 to 8 hrs post last dose by electrochemiluminescent immunoassay; format: functional
[2] = Unbound fraction in mouse plasma; format: ADME, cell-free
[3] = Volume of distribution at steady state in rat; format: ADME, organism-based; conditions: in vivo, read-out: Vdss
[4] = Antiproliferative activity against erlotinib-resistant human PC9 cells expressing EGFR with ex19del and T790M mutations after 72 hrs by luminescence assay; format: functional, cell-based; conditions: PC-9, 72 h
Rattus norvegicus = assay: Unbound plasma clearance in rat at 5 mg/kg, iv; format: ADME, organism-based; conditions: in vivo
[5] = biological target: T1, Epidermal growth factor receptor (Homo sapiens, UniProt P00533, 746-750DEL/T790M); assay: Inhibition of human EGFR T790M/del (746 to 750) deletion mutant using Fl-EEPLYWSFPAKKK-CONH2 as substrate preincubated for 30 mins followed by addition of substrate measured after 30 mins by Morrison plot analysis; format: protein assay; conditions: read-out: Ki(app)
NCI-H292 = assay: Antiproliferative activity against human NCI-H292 cells expressing wild type EGFR after 72 hrs by luminescence assay; format: functional, cell-based; conditions: NCI-H292, 72 h
[6] = biological target: Epidermal growth factor receptor (Homo sapiens, UniProt P00533, L858R/T790M)
[7] = Oral bioavailability in rat; format: ADME, organism-based; conditions: in vivo
[8] = Plasma clearance in rat at 5 mg/kg, iv; format: ADME, organism-based
Mus musculus [9] = assay: In vivo inhibition of EGFR in human NCI-H1975 cells xenografted in SCID mouse assessed as suppression of AKT phosphorylation at 300 mg/kg, po qd everyday for 3 days measured 2 to 8 hrs post last dose by electrochemiluminescent immunoassay; format: functional
Hepatocyte = assay: Drug level in rat hepatocytes treated with (R)-1-[6-[2-(cis-3-Fluoro-4-methoxypiperidin-1-yl)pyrimidin-4-ylamino]-1-((S)-2,2,2-trifluoro-1-methylethyl)-1H-imidazo[4,5-c]pyridin-2-yl]ethanol; format: ADME, cell-based
physchem = conditions: buffer, pH 7.4, logD
Description: Lipophilicity, log D of the compound at pH 7.4 by microscale shake flask method

Mus musculus [10] = assay: In vivo inhibition of EGFR in human NCI-H1975 cells xenografted in po dosed SCID mouse assessed as suppression of ERK phosphorylation administered as qd everyday for 3 days measured 2 to 8 hrs post last dose by electrochemiluminescent immunoassay; format: functional
[11] = Half life in rat; format: ADME, organism-based; conditions: in vivo
Mus musculus [12] = assay: In vivo inhibition of EGFR phosphorylation in human NCI-H1975 cells xenografted in SCID mouse at 300 mg/kg, po qd everyday for 3 days measured 2 to 8 hrs post last dose by electrochemiluminescent immunoassay; format: functional
Liver microsome = assay: Drug level in rat liver microsomes treated with (R)-1-[6-[2-(cis-3-Fluoro-4-methoxypiperidin-1-yl)pyrimidin-4-ylamino]-1-((S)-2,2,2-trifluoro-1-methylethyl)-1H-imidazo[4,5-c]pyridin-2-yl]ethanol; format: ADME
NCI-H1975 = assay: Antiproliferative activity against human NCI-H1975 cells expressing EGFR T790M/L858R double mutant after 72 hrs by luminescence assay; format: functional, cell-based; conditions: NCI-H1975, 72 h
Mus musculus [13] = assay: In vivo inhibition of EGFR in human NCI-H1975 cells xenografted in SCID mouse assessed as suppression of ERK phosphorylation at 300 mg/kg, po qd everyday for 3 days measured 2 to 8 hrs post last dose by electrochemiluminescent immunoassay; format: functional
[14] = biological target: T2, Epidermal growth factor receptor (Homo sapiens, UniProt P00533)
Description: Inhibition of EGFR phosphorylation in human NCI-H292 cells preincubated for 1 hr followed by stimulation with EGF for 8 mins by electrochemiluminescent immunoassay

[15] = biological target: T2, Epidermal growth factor receptor; remark: listed apart in the source
[16] = biological target: T1, Epidermal growth factor receptor; assay: Inhibition of EGFR T790M/del (746 to 750) deletion mutant phosphorylation in erlotinib-resistant human PC9 cells preincubated for 1 hr followed by stimulation with EGF for 8 mins by electrochemiluminescent immunoassay; format: cell-based, PC-9

T2 sequence (P00533 whole entry): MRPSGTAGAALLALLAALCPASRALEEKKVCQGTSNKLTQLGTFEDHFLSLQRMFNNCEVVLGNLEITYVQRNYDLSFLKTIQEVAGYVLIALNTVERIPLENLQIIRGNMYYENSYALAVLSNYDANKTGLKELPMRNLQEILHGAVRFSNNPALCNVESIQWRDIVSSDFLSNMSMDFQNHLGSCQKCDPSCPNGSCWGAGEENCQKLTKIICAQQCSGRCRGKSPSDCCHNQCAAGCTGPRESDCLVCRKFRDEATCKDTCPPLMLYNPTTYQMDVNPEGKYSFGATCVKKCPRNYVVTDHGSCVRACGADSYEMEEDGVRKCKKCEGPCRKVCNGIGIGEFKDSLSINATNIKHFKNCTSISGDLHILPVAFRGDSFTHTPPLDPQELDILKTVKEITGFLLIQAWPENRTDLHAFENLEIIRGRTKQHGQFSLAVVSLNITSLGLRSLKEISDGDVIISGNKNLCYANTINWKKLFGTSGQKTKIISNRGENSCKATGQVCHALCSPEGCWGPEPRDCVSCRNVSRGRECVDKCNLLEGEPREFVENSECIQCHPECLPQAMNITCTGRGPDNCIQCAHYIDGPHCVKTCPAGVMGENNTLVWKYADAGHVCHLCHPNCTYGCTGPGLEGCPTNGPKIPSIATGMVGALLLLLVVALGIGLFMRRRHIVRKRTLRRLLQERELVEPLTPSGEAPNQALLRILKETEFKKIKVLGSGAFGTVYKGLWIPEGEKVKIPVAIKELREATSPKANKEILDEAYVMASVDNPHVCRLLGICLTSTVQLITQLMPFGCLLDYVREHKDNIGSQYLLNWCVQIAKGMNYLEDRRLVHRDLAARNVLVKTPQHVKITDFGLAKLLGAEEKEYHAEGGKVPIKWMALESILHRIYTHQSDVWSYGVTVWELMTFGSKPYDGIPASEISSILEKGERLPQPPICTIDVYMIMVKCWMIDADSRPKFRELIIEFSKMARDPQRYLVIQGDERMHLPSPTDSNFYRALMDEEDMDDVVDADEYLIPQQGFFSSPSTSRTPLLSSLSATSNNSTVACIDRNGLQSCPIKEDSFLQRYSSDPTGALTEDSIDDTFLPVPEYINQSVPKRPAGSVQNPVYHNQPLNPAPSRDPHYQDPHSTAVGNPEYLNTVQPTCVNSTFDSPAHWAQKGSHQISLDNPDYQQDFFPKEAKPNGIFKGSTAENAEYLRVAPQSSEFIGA
T1 sequence (P00533 whole entry, looked up, stated change not applied): as the sequence (P00533 whole entry) above
Sequence of Epidermal growth factor receptor (Homo sapiens, UniProt P00533, L858R/T790M) (P00533 25-1210 T790M/L858R limits assumed): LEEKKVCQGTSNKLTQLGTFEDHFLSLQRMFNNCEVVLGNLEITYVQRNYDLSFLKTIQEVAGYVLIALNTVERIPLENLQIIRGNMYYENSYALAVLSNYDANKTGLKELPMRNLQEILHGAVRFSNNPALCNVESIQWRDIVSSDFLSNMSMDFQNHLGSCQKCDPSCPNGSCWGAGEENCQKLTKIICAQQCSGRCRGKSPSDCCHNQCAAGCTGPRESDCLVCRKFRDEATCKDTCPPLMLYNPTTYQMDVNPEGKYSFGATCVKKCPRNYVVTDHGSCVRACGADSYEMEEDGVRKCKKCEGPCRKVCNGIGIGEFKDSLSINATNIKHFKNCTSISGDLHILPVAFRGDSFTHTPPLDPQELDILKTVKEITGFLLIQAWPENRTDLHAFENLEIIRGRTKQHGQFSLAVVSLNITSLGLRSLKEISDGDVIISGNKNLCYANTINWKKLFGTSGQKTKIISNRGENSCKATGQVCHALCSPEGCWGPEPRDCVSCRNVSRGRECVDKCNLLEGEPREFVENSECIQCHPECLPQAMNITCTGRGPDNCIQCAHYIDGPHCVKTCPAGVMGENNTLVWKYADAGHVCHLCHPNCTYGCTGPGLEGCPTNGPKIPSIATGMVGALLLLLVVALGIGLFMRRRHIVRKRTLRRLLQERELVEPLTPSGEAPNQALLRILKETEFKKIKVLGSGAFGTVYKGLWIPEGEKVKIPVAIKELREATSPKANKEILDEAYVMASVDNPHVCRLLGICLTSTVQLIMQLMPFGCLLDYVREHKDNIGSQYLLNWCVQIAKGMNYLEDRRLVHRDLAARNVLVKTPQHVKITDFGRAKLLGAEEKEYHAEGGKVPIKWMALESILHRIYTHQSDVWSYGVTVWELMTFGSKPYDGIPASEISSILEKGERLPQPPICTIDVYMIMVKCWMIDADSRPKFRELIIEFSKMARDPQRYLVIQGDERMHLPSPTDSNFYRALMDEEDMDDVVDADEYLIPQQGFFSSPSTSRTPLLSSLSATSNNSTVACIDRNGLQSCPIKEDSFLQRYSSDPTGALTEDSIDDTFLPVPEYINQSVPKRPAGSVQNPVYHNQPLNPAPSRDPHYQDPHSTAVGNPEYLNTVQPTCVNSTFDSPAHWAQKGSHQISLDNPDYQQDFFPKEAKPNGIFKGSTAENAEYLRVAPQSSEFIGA

Compound: C[C@@H](O)c1nc2cnc(Nc3ccnc(N4CC[C@H](O)[C@H](F)C4)n3)cc2n1[C@H](C)C(F)(F)F
- fEC50 (Mus musculus [1]): 0.5 µM
- fraction unbound [2]: 0.207
- Vd [3]: 3.5 L/kg
- EC50 [4]: 170 nM
- CL free (Rattus norvegicus): 348 mL/min/kg
- Ki [5]: 6 nM
- EC50 (NCI-H292): > 10000 nM
- Ki [6]: 2.5 nM
- bioavailability [7]: 29%
- clearance [8]: 71 mL/min/kg
- inhibition in vivo at 300 mg/kg (Mus musculus [9]): > 65%
- Drug metabolism (Hepatocyte): metabolite_detected
- logD (physchem): 1.8
- fEC50 (Mus musculus [10]): 0.3 µM
- half-life [11]: 42.6 min
- inhibition in vivo at 300 mg/kg (Mus musculus [12]): > 90%
- Drug metabolism (Liver microsome): metabolite_detected
- EC50 (NCI-H1975): 868 nM
- inhibition in vivo at 300 mg/kg (Mus musculus [13]): > 90%
- IC50 [14]: > 10000 nM
- Ki [15]: 313 nM
- IC50 [16]: 81 nM
